Like-named read-outs stand apart in the source and are kept apart here. Square brackets hold non-standard residues; d marks the D form. Peptide text beside a SMILES is read from it. * marks the point of attachment. Lauroyl = CCCCCCCCCCCC(=O)*; Butyryl = CCCC(=O)*
Tests used:
[1] = system: X. fastidiosa subsp. fastidiosa IVIA 5387.2
Gram-negative bacteria = system: Gram-negative bacteria; design: key: Xf: Xylella fastidiosa; Ec: Escherichia coli; Pa: Pseudomonas aeruginosa; Ab: Acinetobacter baumannii; Kp: Klebsiella pneumoniae; Bc: Burkholderia cenocepacia; Se: Salmonella enterica subsp. enterica; Sp: Salmonella pullorum; –: low or no activity; conditions: cited from earlier work
[2] = system: X. fastidiosa subsp. fastidiosa IVIA 5387.2; format: cell-based, Xylella fastidiosa

Compound | Bactericidal activity: Reduction in viability (Log N0/N) ([1]; 3.1 µM) | log reduction ([1]; 3.1 µM) | Bactericidal activity: Reduction in viability (Log N0/N) ([1]; 12.5 μM) | log reduction ([1]; 12.5 μM) [log] | Bactericidal activity: Reduction in viability (Log N0/N) ([1]; 50 µM) | Described activity: Antibacterial (Gram-negative bacteria) | Biofilm formation Level (antibiofilm activity) ([2]; 12.5 μM) | Biofilm formation Ratio (treatment/NTC) ([2]; 28°C, 5 days) | Planktonic cells Ratio (treatment/NTC) ([2]; 28°C, 5 days) | Hemolysis (horse erythrocytes; 150 µM) [%] | Hemolysis (horse erythrocytes; 250 µM) [%] | Hemolysis (horse erythrocytes; 375 µM) [%] | Biofilm formation Level (antibiofilm activity) ([2]; 50 µM) | Biofilm formation Ratio (treatment/NTC) ([2]; 50 µM) | Planktonic cells Ratio (treatment/NTC) ([2]; 50 µM) | Bactericidal activity: Reduction in viability (Log N0/N) [1] [Log N0/N] | Effect on X. fastidiosa growth in the antibiofilm test [2]
Magainin 2 | 0.49 ± 0.10 | poorly active | 2.07 ± 0.12 | 2 | 3.29 ± 0.11 | Xf | Moderate (key: High: high antibiofilm activity (ratio of biofilm formation from 0.01 to 0.2); Moderate: moderate activity (ratio from 0.29 to 0.47); Low: low activity (ratio from 0.72 to 0.77)) | 0.47 ± 0.02 | 1.59 ± 0.13 | 35.2 ± 1.1 | 54.5 ± 3.7 | 71.1 ± 6.0 |  |  |  |  | 
CCCCCCCCCCCC(=O)N[C@H](C(=O)N[C@@H](CC(C)C)C(=O)N1CCC[C@H]1C(=O)N[C@H](Cc1ccccc1)C(=O)N[C@@H](CCCCN)C(=O)N[C@H](Cc1ccccc1)C(=O)N1CCC[C@H]1C(=O)N[C@H](Cc1ccccc1)C(=O)N[C@H](Cc1ccccc1)C(=O)N1CCC[C@H]1C(=O)N[C@H](Cc1ccccc1)C(=O)N[C@@H](CCCNC(=N)N)C(=O)N[C@@H](CCCNC(=N)N)C(N)=O)[C@@H](C)CC [BP528] (Lauroyl-ILP[dF]K[dF]P[dF][dF]P[dF]RR-NH2) |  |  |  |  | 0.61 ± 0.12 |  |  |  |  | 92.1 ± 5.7 | 96.6 ± 3.1 | 99.1 ± 8.0 | High (key: High: high antibiofilm activity (ratio of biofilm formation from 0.01 to 0.2); Moderate: moderate activity (ratio from 0.29 to 0.47); Low: low activity (ratio from 0.72 to 0.77)) | 0.03 ± 0.01 | 0.99 ± 0.06 |  | 
CCCC(=O)N[C@H](C(=O)N[C@@H](CC(C)C)C(=O)N1CCC[C@H]1C(=O)N[C@H](Cc1ccccc1)C(=O)N[C@@H](CCCCN)C(=O)N[C@H](Cc1ccccc1)C(=O)N1CCC[C@H]1C(=O)N[C@H](Cc1ccccc1)C(=O)N[C@H](Cc1ccccc1)C(=O)N1CCC[C@H]1C(=O)N[C@H](Cc1ccccc1)C(=O)N[C@@H](CCCNC(=N)N)C(=O)N[C@@H](CCCNC(=N)N)C(N)=O)[C@@H](C)CC [BP526] (Butyryl-ILP[dF]K[dF]P[dF][dF]P[dF]RR-NH2) |  |  |  |  | 0.56 ± 0.03 |  |  |  |  | 8.3 ± 0.7 | 20.4 ± 0.7 | 46.8 ± 3.3 | High (key: High: high antibiofilm activity (ratio of biofilm formation from 0.01 to 0.2); Moderate: moderate activity (ratio from 0.29 to 0.47); Low: low activity (ratio from 0.72 to 0.77)) | 0.17 ± 0.02 | 2.17 ± 0.02 |  | 
CC[C@H](C)[C@H](NC(=O)[C@H](CCCNC(=N)N)NC(=O)[C@H](CCCNC(=N)N)NC(=O)[C@H](Cc1c[nH]c2ccccc12)NC(=O)[C@H](Cc1ccccc1)NC(=O)[C@@H](N)C(C)C)C(=O)N[C@@H](CCCNC(=N)N)C(=O)N[C@H](C(=O)N[C@@H](Cc1c[nH]c2ccccc12)C(=O)N[C@H](C(=O)N[C@H](C(=O)N[C@@H](CCCNC(=N)N)C(N)=O)[C@@H](C)CC)C(C)C)C(C)C [LJK2] (H-VFWRRIRVWVIR-NH2) |  |  |  |  |  |  |  |  |  | 28.4 ± 1.9 | 43.9 ± 3.7 | 72.4 ± 8.9 |  |  |  | 0.80 ± 0.10 | affected X. fastidiosa’s growth
